Molecules are shown by their SMILES. pIC50: −log10 of the molar value.

Data set [1] relates to BxPC3 pancreatic (folate receptor −) cancer cells. The experiment in a line: In-vitro cytotoxicity of aminopterin formulations (cell titer-glo). Conditions: BxPC3, 72 hours. Type of data set: cell-based. The protocol:
(§1) Cells originally purchased from ATCC (A549, Panc-1, OVCAR3, and BXPC-3) were seeded in 96 well tissue culture plates to be 50% confluent by 24 hours. Cells were incubated at 37° C. with 5.0% CO2. Cells were treated with escalading doses of free aminopterin, crosslinked aminopterin formulation, uncrosslinked aminopterin formulation, and non drug-loaded micelle formulations 24 hours after plate seeding. Free aminopterin was dissolved in DMSO and administered to cells with a total volume of DMSO equal to or less than 0.0025%. Micelle formulations were re-suspended in biology grade water. Dilutions were done in deep well plates with cell media and water or DMSO (for free aminopterin only) equalizing displaced volume. Incubation media was aspirated from the 96 well plates and 100 μl of each dilution was added to the wells in triplicate and incubated over 72 hours at 37° C. with 5.0% CO2. Crosslinked and uncrosslinked non drug-loaded micelle formulations were administered at the four highest doses and were calculated at comparative mg/ml concentrations to drug-loaded micelle concentrations of delivery vehicle. After 72-hour incubation, plates were allowed to cool to room temperature and 25 μl of cell titer-glo was added to each well. Plates were briefly shaken to mix and luminescence readings were read on a plate reader. Luminescence reading for triplicate doses are averaged and divided by average luminescence readings from untreated cells on the same plate to calculate the % of viable cells per dose.
(§2) The aminopterin loaded micelles from Example 119 and Example 121 were tested for cytotoxicity compared to free aminopterin and the crosslinked and uncrosslinked non drug-loaded micelle formulations (from polymer of Example 18) against A549 lung, OVCAR3 ovarian, PANC-1 (folate receptor +) pancreatic and BxPC3 (folate receptor −) pancreatic cancer cell lines. The cytotoxicity profiles for each treatment for each cell line in FIG. 14 (A549 Lung), FIG. 15 (OVCAR3 Ovarian), FIG. 16 (PANC-1 Pancreatic), and FIG. 17 (BxPC3 pancreatic). […] Treatment with both uncrosslinked and crosslinked non drug-loaded micelles was well tolerated, with greater than 80% viability for all cells tested.
For orientation: Cellular ATP, detected with luciferase, serves as a proxy for viable cell number.

For a further data set, the system named is A549 lung cancer cells. The description is as above. Type of data set: cell-based. As to conditions: read-out: IC50 (cell viability inhibited by 50%); A549, 72 hours. How it is done:
as §1, §2

The subject of data set [2] is OVCAR3 ovarian cancer cells. Described as above. Type of data set: cell-based. As to conditions: OVCAR3, 72 hours. The protocol: as §1, §2
Data set [3] deals with PANC-1 pancreatic (folate receptor +) cancer cells. The description is as above. As to conditions: read-out: IC50 (cell viability inhibited by 50%); PANC-1, 72 hours. The data set is classed as cell-based. How it is done: as §1, §2
The conditions of data set [4]: Fisher, rat, in vivo, iv, 5 mg/kg.
Data set [5] in a line: in vivo. As to conditions: Fisher, rat, iv, 5 mg/kg.
Data set [6] can be described thus: in vivo. More on the design: species or system Fisher rats. As to conditions: Fisher, rat, iv, 10 mg/kg. How it is done:
The delivery vehicle for drug administration was isotonic saline. […] Samples were analyzed on a Waters Alliance 2695 equiped with a 2475 fluorescence detector (Ex=470 nm; Em=580). A 5 μL sample injection was made onto a Waters 4 μm Nova Pak C18 (3.9×150 mm) at 30° C. with a flow rate of 0.750 mL per minute of 10 mM phosphate buffer (pH=1.4), methanol and acetonitrile (gradient from 70/10/20 to 40/10/50 for buffer/methanol/acetonitrile was made over eight minutes). Analyte eluted at 5.9 minutes under these conditions, was normalized to the internal standard, and quantitated using a standard curve comprised of seven standards.

The test system of data set [7] is HCT-116 colon cancer cells. The experiment in a line: Anti-tumor efficacy of SN-38 micelles in HCT-116 xenograft model. The data set is classed as in vivo, mice. Conditions: irinotecan at 50 mg/kg, IV 3×QW.

As for `Nc1nc(N)c2nc(CNc3ccc(C(=O)N[C@@H](CCC(=O)O)C(=O)O)cc3)cnc2n1` [Aminopterin, aminopterin], the “IC50 (cell viability inhibited by 50%)” value in data set [1] and in data set [2] was “no IC50 was obtained” each time. Moreover, the pIC50 (in the data set with A549 lung cancer cells; in data set [3]) was 7.60 to 8.15 each time.
Take `CO[C@H]1C(=O)[C@]2(C)[C@@H](OC)C[C@H]3OC[C@@]3(OC(C)=O)[C@H]2[C@H](OC(=O)c2ccccc2)[C@]2(O)C[C@H](OC(=O)[C@H](O)[C@@H](NC(=O)OC(C)(C)C)c3ccccc3)C(C)=C1C2(C)C` [free cabizataxel, cabazitaxel]: the “Exposure of cabazitaxel to the plasma compartment over 15 minutes” value in data set [4] came out at 200 ng·h/mL. Besides, the Cmax – broadly, the maximum level reached in the sampled fluid or tissue – in “in vivo [5]” was 1200 ng/mL.
As for `COc1cccc2c1C(=O)c1c(O)c3c(c(O)c1C2=O)C[C@@](O)(C(C)=O)C[C@@H]3O[C@H]1C[C@H](N)[C@H](O)[C@H](C)O1` [free daunorubicin, daunorubicin], in “in vivo [6]”, the exposure (AUC) – broadly, concentration integrated over time – turned out to be 1300 ng·h/mL; the maximum concentration (Cmax) was 3300 ng/mL; the “Half-life (terminal, elimination)” value turned out to be 3.3 h. Also, the half-life (in general, the time needed for the level to fall by half in the phase considered) in the data set “in vivo [6]” (Half-life (terminal, elimination)) is 3.4 h.
Take `CCc1c2c(nc3ccc(OC(=O)N4CCC(N5CCCCC5)CC4)cc13)-c1cc3c(c(=O)n1C2)COC(=O)[C@]3(O)CC` [irinotecan]: the “Mean tumor growth rate” value in data set [7] is 18.9 mm^3 per day.
